Reference: US10392379B2, “Hepatitis B core protein modulators” (Assembly Biosciences, Inc., priority 2015, dated 2019)

Key:
HBV = test: Viral load production in AD38 cells by quantitative PCR of the core sequence; type: cell-based; conditions: Hepatitis B virus, 144 h, 10 μM compound, 6 days, supernatant qPCR, relative to DMSO control, read-out: AD38 Viral Load (%) (VL with cmpd/VL in DMSO control) at 10 μM
Protocol: (§1) AD38 cells were then re-suspended with 10 mL of Treatment Medium and counted. Wells of a collagen coated 96-well NUNC microtiter plate were seeded at 50,000/well in 180 μL of Treatment Medium, and 20 μL of in treatment media with either 10% DMSO (Control) or a 10× solution of compound in 10% DMSO was added. Plates were incubated for 6 days at 37° C.
Viral load production was assayed by quantitative PCR of the core sequence. […] The PCR mixture was incubated at 45° C. for 5 minutes, then 95° C. for 10 min, followed by 40 cycles of 10 seconds at 95° C. and 20 seconds at 60° C. Viral load was quantitated against known standards by using ViiA™ 7 Software. Viral load in the supernatant from wells with treated cells were compared against viral load in supernatant from DMSO control wells (≥3 per plate).

AD38 cells = test: Viability of AD38 cells (Promega CellTiter-Glo); type: cell-based; conditions: 10 μM compound, 6 days, DMSO controls = 100%
Protocol: as §1
At the end of compound treatment period cell viability was assessed using a Promega CellTiter-Glo protocol. All supernatant was removed the previously treated 96-well microtiter plate, and 50 μL Tetracycline-free treatment medium (DMEM/F12 (1:1), 1× Pen/step (cat#: 30-002-CL, Mediatech, Inc), with 2% FBS, Tet-system approved (cat#: 631106, Clontech), and 1% DMSO was added back to each well. Another 50 μL of CellTiter-Glo reagent solution (Promega, G7573) was then added at room temperature and the contents mixed for 2 minutes on an orbital shaker to induce cell lysis. This was followed by incubation at room temperature for 10 minutes to stabilize the luminescent signal. The luminescence was recorded for 0.2 seconds per well on a Tecan multimode platereader (Infinite M1000 pro). The luminescent signal from each well was normalized against that of untreated (DMSO) control wells. All results in Table 3 were reported with percent viability (with controls being 100%).

Row | SMILES | activity at 10 µM (HBV) | AD38 Viability Normalized Result (cmpd/DMSO %) at 10 μM (AD38 cells)
1 | Cc1cc2c(cc1C(=O)NCc1cncnc1)NC(=O)c1ccccc1S2 [Compound 495] | 23.1% | 96%
2 | Cc1cc2c(cc1C(=O)NCc1cccnc1)NC(=O)c1ccccc1S2 [Compound 497] | 38.7% | 97%
3 | O=C(NCc1cncnc1)c1ccc2c(c1)NC(=O)c1ccccc1N2 [Compound 504] | 62.9% | 101%
4 | O=C(NCCc1ccccn1)c1ccc2c(c1)NC(=O)c1ccccc1N2 [Compound 505] | 48.2% | 103%
5 | O=C(NCCc1cccnc1)c1ccc2c(c1)NC(=O)c1ccccc1N2 [Compound 506] | 31.6% | 100%
6 | O=C(NCc1cccnc1)c1ccc2c(c1)NC(=O)c1ccccc1N2 [Compound 507] | 51.9% | 103%
7 | O=C(NCc1cncnc1)c1ccc2c(c1)NC(=O)c1cc(Cl)ccc1S2 [Compound 539] | 0.2% | 0%
8 | O=C(NCc1cccnc1)c1ccc2c(c1)NC(=O)c1cc(Cl)ccc1S2 [Compound 540] | 0.6% | 52%
9 | O=C(NCc1cncnc1)c1ccc2c(c1)NC(=O)c1ccc(Cl)cc1S2 [Compound 542] | 1.6% | 106%
10 | O=C(NCc1cccnc1)c1ccc2c(c1)NC(=O)c1ccc(Cl)cc1S2 [Compound 543] | 1.2% | 24%
11 | CC1c2ccc(C(=O)NCc3cncnc3)cc2NC(=O)c2ccccc21 (stereo not drawn) [Compound 545] | 1.4% | 95%
12 | CC1c2ccc(C(=O)NCc3cccnc3)cc2NC(=O)c2ccccc21 (stereo not drawn) [Compound 547] | 1.5% | 99%
13 | O=C(NCc1nnc(-c2ccc(O)cc2)s1)c1ccc2c(c1)NC(=O)c1ccccc1O2 [Compound 739] | 62.2% | 108%
14 | O=C(NCc1ccc(-c2ccc(O)cc2)nc1)c1ccc2c(c1)NC(=O)c1ccccc1S2(=O)=O [Compound 778] | 3.2% | 104%
15 | O=C(NCc1ccc(-c2ccc3[nH]ccc3c2)nc1)c1ccc2c(c1)NC(=O)c1ccccc1S2(=O)=O [Compound 779] | 0.5% | 87%
16 | O=C(NCc1ccc(-c2ccc3[nH]ncc3c2)nc1)c1ccc2c(c1)NC(=O)c1ccccc1S2(=O)=O [Compound 780] | 1.8% | 106%
17 | O=C(NCc1ccc(-c2ccc3[nH]cnc3c2)nc1)c1ccc2c(c1)NC(=O)c1ccccc1S2(=O)=O [Compound 781] | 7.3% | 102%
18 | Nc1ncc(-c2ccc(CNC(=O)c3ccc4c(c3)NC(=O)c3ccccc3S4(=O)=O)cn2)cn1 [Compound 782] | 25.4% | 108%

Row | SMILES | activity at 10 µM (HBV) | AD38 Viability Normalized Result (cmpd/DMSO %) at 10 μM (AD38 cells)
19 | O=C(NCc1ccc(-c2ccc(O)cc2Cl)nc1)c1ccc2c(c1)NC(=O)c1ccccc1S2(=O)=O [Compound 783] | 6.3% | 105%
20 | O=C(NCc1ccc(-c2ccc(O)c(Cl)c2)nc1)c1ccc2c(c1)NC(=O)c1ccccc1S2(=O)=O [Compound 784] | 137% | 103%
21 | O=C(NCc1ccc(-c2ccc(O)cc2F)nc1)c1ccc2c(c1)NC(=O)c1ccccc1S2(=O)=O [Compound 785] | 2.1% | 94%
22 | O=C(NCc1ccc(-c2ccc(O)c(F)c2)nc1)c1ccc2c(c1)NC(=O)c1ccccc1S2(=O)=O [Compound 786] | 5% | 105%
23 | O=C(NCc1ccc(-c2cc(F)c(O)c(F)c2)nc1)c1ccc2c(c1)NC(=O)c1ccccc1S2(=O)=O [Compound 787] | 15.5% | 100%
24 | O=C(NCc1cnc(-c2ccc(O)cc2)nc1)c1ccc2c(c1)NC(=O)c1ccccc1S2(=O)=O [Compound 788] | 1.9% | 111%
25 | O=C(NCc1cnc(-c2ccc3[nH]ccc3c2)nc1)c1ccc2c(c1)NC(=O)c1ccccc1S2(=O)=O [Compound 789] | 0.4% | 108%
26 | O=C(NCc1cnc(-c2ccc3[nH]ncc3c2)nc1)c1ccc2c(c1)NC(=O)c1ccccc1S2(=O)=O [Compound 790] | 1.7% | 103%
27 | O=C(NCc1cnc(-c2ccc3[nH]cnc3c2)nc1)c1ccc2c(c1)NC(=O)c1ccccc1S2(=O)=O [Compound 791] | 2.2% | 100%
28 | Nc1ncc(-c2ncc(CNC(=O)c3ccc4c(c3)NC(=O)c3ccccc3S4(=O)=O)cn2)cn1 [Compound 792] | 23.1% | 105%
29 | O=C(NCc1cnc(-c2ccc(O)cc2Cl)nc1)c1ccc2c(c1)NC(=O)c1ccccc1S2(=O)=O [Compound 793] | 3.5% | 103%
30 | O=C(NCc1cnc(-c2ccc(O)c(Cl)c2)nc1)c1ccc2c(c1)NC(=O)c1ccccc1S2(=O)=O [Compound 794] | 1.3% | 104%
31 | O=C(NCc1cnc(-c2ccc(O)cc2F)nc1)c1ccc2c(c1)NC(=O)c1ccccc1S2(=O)=O [Compound 795] | 6.4% | 106%
32 | O=C(NCc1cnc(-c2ccc(O)c(F)c2)nc1)c1ccc2c(c1)NC(=O)c1ccccc1S2(=O)=O [Compound 796] | 1.4% | 111%
33 | O=C(NCc1nnc(-c2ccc(O)cc2)s1)c1ccc2c(c1)NC(=O)c1ccccc1S2(=O)=O [Compound 807] | 0.9% | 96%
34 | O=C(NCc1ccc(Cc2ccc(O)cc2)nc1)c1ccc2c(c1)NC(=O)c1ccccc1S2(=O)=O [Compound 825, N-((6-(4-hydroxybenzyl)pyridin-3-yl)methyl)-11-oxo-10,11-dihydrodibenzo[b,f][1,4]thiazepine-8-carboxamide 5,5-dioxide] | 6.6% | 90%
35 | COc1ccc(Cc2ccc(CNC(=O)c3ccc4c(c3)NC(=O)c3ccccc3S4(=O)=O)cn2)cc1 [Compound 825-A, N-((6-(4-methoxybenzyl)pyridin-3-yl)methyl)-11-oxo-10, 11-dihydrodibenzo[b,f][1,4]thiazepine-8-carboxamide 5,5-dioxide] | 6.2% | 58%
36 | O=C(NCc1ccc(Cc2ccc(O)cc2)nc1)c1ccc2c(c1)NC(=O)c1ccccc1O2 [Compound 837, N-((6-(4-hydroxybenzyl)pyridin-3-yl)methyl)-11-oxo-10,11-dihydrodibenzo[b,f][1,4]oxazepine-8-carboxamide] | 0.9% | 108%
